Measurements reported in publication PMC10534891, “Evaluation of 4-Aminoquinoline Hydrazone Analogues as Potential Leads for Drug-Resistant Malaria” (Molecules, 2023).

Assays:
[1] = tested on: HepG2 cells; assay: MTT cytotoxicity assay, HepG2; assay type: cell-based, Human; details: HepG2 IC50 (5 days) / K1 72 h IC50; IC50 = 25 μM assumed for compound 13
Protocol: (§1) An MTT (3-(4,5-dimethylthiazol-2-yl)-2,5-diphenyl tetrazolium bromide) assay was performed to investigate the toxicity of the 4-aminoquinoline hydrazone compounds. HepG2 and MDBK cells were incubated with a two-fold serial dilution at dose ranges from 0.39 to 25 µM for 5 days.
(§2) Human hepatoma (HepG2) and the Madin–Darby bovine kidney (MDBK) cell lines were purchased from American Type Culture Collection (ATCC), USA. The MDBK cell line was cultured with Dulbecco’s Modified Eagle’s Medium (DMEM) containing 4.5 g/L (+)-D-glucose and L-glutamine, while the HepG2 cell line was cultured with RPMI 1640 containing 2 mM L-glutamine and HEPES. The culture medium was supplemented with 10% Fetal Bovine Serum (FBS) and 1% penicillin. Cells were maintained in the presence of 5% CO2 atmosphere at 37 °C. The assay was carried out on a 96-well plate, with each well containing 4 × 10^3 cells. Plates were firstly incubated for 24 h at 37 °C to ensure cell adherence. The cells were then treated with 100 µL of the drug solution prepared at various concentrations and further incubated for 5 days. After the incubation period, 50 µL of the MTT (3-(4,5-dimethylthiazol-2-yl)-2,5-diphenyltetrazolium bromide, Sigma, UK) solution was added to each well and incubated for a further 3 h. The MTT solution and medium were aspirated, 150 µL of DMSO was added to each well, and the results were read on the Ascent plate reader.

[2] = MTT cytotoxicity assay, HepG2; assay type: cell-based, Human; details: human, HepG2 cells; MTT, 5 days; read-out: Cell Toxicity IC50 ± SE HepG2
Protocol: as §1, §2

[3] = tested on: P. falciparum K1 strain; assay: P. falciparum K1 dose-response, 72 h, SYBR Green-based plate reader assay; assay type: cell-based; details: Plasmodium falciparum
Protocol: We set up drug efficacy assays for the eight lead compounds 1–5, 12–14 (selected based on the best antimalarial activities) (Table 1), with 72 h incubation on parasitised culture. A dose–response experiment was initiated on 1% synchronous culture at the ring stages of the P. falciparum K1 strain. The selected compounds were tested at three-fold serial dilutions from 6.86 to 5000 nM. […] The selectivity indices (IC50 human cells/IC50 parasites) were calculated based on the 72 h exposure studies and are presented in Table 2.
(§3) In total, 1% of infected RBCs at the ring or trophozoites stage was exposed to nine dilutions (four-fold serial dilution) of compounds from 50 mM stock solutions in DMSO. A total of 100 µL of culture volume was added in 96-well plates with 100 µL drug dilutions. Plates were either incubated for 48 h or 72 h at 37 °C, 5% CO2, 5% O2 in N2. Following the incubation, 150 µL of the medium was carefully removed and 150 µL of the 5× SYBR Green solution (prepared by adding 2 µL of 10,000× SYBR Green in 4 mL of PBS) was added to each well. Plates were kept in the dark for 45 min. Fluorescence intensity was measured using a microplate reader (Genius Tecan) with an excitation of 485 nm and an emission of 535 nm.
(§4) IC50 values were determined using Graph Pad Prism 5.0. Values were calculated using non-linear regression by using log-transformed drug concentration plotted against dose–response. Parasitaemia was calculated and normalised relative to the response on the controls (cultures without drug).

[4] = tested on: P. falciparum 3D7; assay: P. falciparum 3D7 dose-response, 72 h, SYBR Green-based plate reader assay; assay type: cell-based; details: Plasmodium falciparum, ring stage, read-out: 3D7 IC50 ± SE
Protocol: (§5) The lead compounds 1 and 2 were further evaluated against the chloroquine-resistant P. falciparum Dd2 strain and chloroquine-sensitive P. falciparum 3D7. The drug activity assay was initiated on 1% infected blood at ring stages of the parasites at four-fold serial dilution from 0.00305 to 200 µM. The growth was measured after 72 h using an SYBR Green-based plate reader assay.
as §3

[5] = tested on: P. falciparum Dd2 strain; assay: P. falciparum Dd2 dose-response, 72 h, SYBR Green-based plate reader assay; assay type: cell-based; details: Plasmodium falciparum, ring stage, read-out: Dd2 IC50 ± SE
Protocol: as §5, §3

[6] = tested on: P. falciparum K1 strain; assay: P. falciparum K1 asexual growth inhibition, 48 h, SYBR Green-based plate reader assay; assay type: cell-based, Plasmodium falciparum; details: K1 strain, trophozoite stage, 48 h incubation; for IC50: Plasmodium falciparum, read-out: Plasmodium IC50 ± SE
Protocol: Sixteen 4-amino-6-methoxy-quinoline hydrazone compounds (see Figure S1, Supplementary Materials for full structures), with methyl and phenyl substituents at the 2-position (R = Me, Ph) and various substituents at R’ (Table 1), were tested for their antimalarial activities. A 1% parasitised culture at the trophozoite stage was treated with the compounds for 48 h at concentrations of 0.003050–200 µM (four-fold serial dilution) against the P. falciparum K1 strain, and the growth was measured using the SYBR Green-based plate reader assay.
as §3, §4

[7] = MTT cytotoxicity assay, MDBK; assay type: cell-based, bovine; details: bovine, MDBK cells; MTT, 5 days; read-out: Cell Toxicity IC50 ± SE MDBK
Protocol: as §1, §2

[8] = tested on: MDBK cells; assay: MTT cytotoxicity assay, MDBK; assay type: cell-based, bovine; details: MDBK IC50 (5 days) / K1 72 h IC50; IC50 = 25 μM assumed for compounds 5 and 13
Protocol: as §1, §2

[9] = tested on: P. yoelii NL
Protocol: We next assessed the antimalarial activity of compound 2 in vivo within a P. yoelii NL murine model of blood-stage malaria. […] Two dosages of the drug were tested, 5 mg/kg and 20 mg/kg (intravenous tail vein injection), while another group of mice was administered with the drug vehicle alone (Figure 3). The lead compound 2 was injected once a day for 4 days, starting at day 11 when the infection level reached ~5% parasitaemia. Mice were monitored for a total of 20 days in order to detect signs of infection rebound or eventual toxicity.
C57BL/6 mice were purchased from Charles River, UK, and were maintained at the University of Manchester in individually ventilated cages. A total of six mice were used for this experiment and kept in the cage (two in each cage) with randomisation of mice given antimalarial drugs and vehicle control. The mice were maintained in individually ventilated cages with food and water ad libitum. Male and females were kept within separate cages during the course of the experiment. The mice generally weighed 18–20 g at the start of the experiment. Cryopreserved P. yoelii NL parasites were passed once through mice before the infection experiment. Male/female mice 6–10 weeks in age were infected with 1 × 10^4 parasitised red blood cells (pRBCs) via intravenous injection in the tail vein. Parasitaemia growth was monitored via Giemsa-stained blood smears. Three groups of mice (placebo, drug dose of 5 mg/kg or 20 mg/kg) were used for this experiment. Compound 2 was injected once a day for 4 days starting at the day the infection level reached ~5% parasitaemia. After the injection, mice were monitored for 20 days to detect eventual signs of both infection rebound and toxicity.

[10] = tested on: P. falciparum K1 strain; assay: Stage specificity assay; assay type: cell-based, Plasmodium falciparum; details: 50–100 times IC50, 24 h exposure, wash-out, further 24 h
Protocol: The stage specificity was evaluated by conducting drug susceptibility experiments on synchronous cultures either at early rings or schizonts stages (as detailed in the Section 4). […] Cultures were exposed to drug treatment for 24 h, after which the compounds were washed out and incubated in complete RPMI medium for a further 24 h.
P. falciparum K1 was synchronised twice with 5% sorbitol at 0 h and 31 h to obtain early rings (up to 3 h old). In order to obtain late trophozoites to early schizonts, the culture was synchronised twice at 0 h and 6 h. Each synchronous stage was diluted to 1% parasitaemia. […] The dilution ranged from 1.6 to 100× fold of the previously determined IC50 of each compound in a standard 48 h assay. After a 24 h incubation period, the plates were washed 4 times resulting in about a 100-fold dilution of the free compound. The plates were further incubated for an additional 24 h at 37 °C and analysed using SYBR Green staining assays as previously described.

[11] = ring stage, 72 h incubation, read-out: Plasmodium IC50 ± SE

Structure (SMILES)	Selectivity Indices (HepG2) [1]	IC50 at 5 days [2] [µM]	IC50 [3, 11] [µM]	IC50 [6] [µM]	IC50 at 5 days [7] [µM]	Selectivity Indices (MDBK) [8]	further results
COc1ccc2nc(C)cc(N/N=C/c3ccc(F)cc3)c2c1 [Compound 1]	34	0.872 ± 0.79	0.0257	0.612 ± 0.35	3.77 ± 1.5	147	IC50 ([3]; 72 h, read-out: IC50): 0.025 µM; IC50 [4]: 0.183 µM; IC50 [5]: 0.133 µM
COc1ccc2nc(C)cc(NN=Cc3ccccc3)c2c1 [Compound 2, 4-(2-benzylidenehydrazinyl)-6-methoxy-2-methylquinoline]	58	1.9 ± 0.11	0.0329 ± 0.007	2.26 ± 2.2	3.44 ± 2.7	101	Signs of toxicity in treated mice ([9]; 5 and 20 mg/kg i.v., monitored over three weeks): no detectable signs of significant toxicity; Effect on parasitaemia, 20 mg/kg and 5 mg/kg ([9]; P. yoelii NL-treated mice): suppression of parasitaemia; Parasitaemia after drug treatment was suspended ([9]; mice, 5 mg/kg and 20 mg/kg i.v. once a day for 4 days): less than 4%; Effect on parasitaemia, 5 mg/kg ([9]; mice, 5 mg/kg i.v. once a day for 4 days): delayed activity; IC50 ([3]; 72 h, read-out: IC50): 0.032 µM; IC50 [4]: 0.0554 µM; IC50 [5]: 0.0244 µM
COc1ccc2nc(C)cc(N/N=C/c3cccc(OC)c3O)c2c1 [Compound 5]	39	6.73 ± 0.73	0.174 ± 0.03	3.82	> 25	>143	Inhibition of parasitaemia growth, schizont stage [10]: more than 25%
COc1ccc2nc(C)cc(N/N=C/c3c[nH]cn3)c2c1 [Compound 6]	–	7.26 ± 1	–	48.8	11.7 ± 2.5	–	–
COc1ccc2nc(C)cc(N/N=C/c3ccc([N+](=O)[O-])cc3)c2c1 [Compound 7]	–	1.69	–	20.1	6.68 ± 1.7	–	–
COc1ccc2nc(C)cc(N/N=C/c3ccc(O)cc3)c2c1 [Compound 8]	–	1.97 ± 0.42	–	22.3	3.73 ± 1.2	–	–
COc1ccc2nc(C)cc(N/N=C/c3ccc(C(=O)O)cc3)c2c1 [Compound 9]	–	> 25	–	> 200	> 25	–	Plasmodium IC50 ± SE [6]: inactive
COc1ccc2nc(C)cc(N/N=C/c3cccc(O)c3)c2c1 [Compound 10]	–	2.64 ± 0.2	–	18.9	9.71 ± 3.5	–	–
COc1ccc2nc(C)cc(N/N=C/c3cc(O)cc(O)c3)c2c1 [Compound 11]	–	11.1 ± 2.9	–	35.9 ± 43	> 25	–	–
COc1ccc2nc(-c3ccccc3)cc(N/N=C/c3cccc(OC)c3O)c2c1 [Compound 12]	14	1.8 ± 0.78	0.133 ± 0.06	5.67 ± 13	6.6	50	–
COc1ccc2nc(-c3ccccc3)cc(N/N=C/c3ccc([N+](=O)[O-])cc3)c2c1 [Compound 14]	5	0.89 ± 0.13	0.176 ± 0.06	2.2 ± 1.5	4.24 ± 1	–	Inhibition of parasitaemia growth, schizont stage [10]: more than 25%
COc1ccc2nc(-c3ccccc3)cc(N/N=C/c3c[nH]cn3)c2c1 [Compound 15]	–	2.21 ± 0.15	–	28.3 ± 29	9.31 ± 3.5	–	–
COc1ccc2nc(-c3ccccc3)cc(N/N=C/c3ccc(N(C)C)cc3)c2c1 [Compound 16]	–	4.15 ± 2.4	–	8.06 ± 4.5	6.24	–	–
